We go through eight compounds from ChEMBL document CHEMBL3244268, “Nucleosides. 102. Synthesis of some 3'-deoxy-3'-substituted arabinofuranosylpyrimidine nucleosides” (1977).

Converted amounts (≈) assume the structure as drawn.

The first test concerns L5178Y. The test can be described thus: Growth inhibition of mouse L5178Y cells at 10 ug/ml. Format: functional. Conditions: read-out: GI.
Consider `[N-]=[N+]=N[C@H]1[C@H](O)[C@H](n2ccc(=O)[nH]c2=O)O[C@@H]1CO`, for which the inhibition of growth at 10 µg/mL came out at 0%.
Still for that read-out and setting: the figure for `Nc1ccn([C@@H]2O[C@H](CO)[C@@H](N=C=S)[C@@H]2O)c(=O)n1` is 34%; for `O=c1ccn([C@@H]2O[C@H](CO)[C@@H](Br)[C@@H]2O)c(=O)[nH]1` it is 6%.
Still for that read-out and setting: for `O=c1ccn([C@@H]2O[C@H](CO)[C@@H](N=C=S)[C@@H]2O)c(=O)[nH]1` the value was 5%; for `O=c1ccn([C@@H]2O[C@H](CO)[C@@H](I)[C@@H]2O)c(=O)[nH]1`, 0%.

A further test has as its system L5178Y. The experiment in a line: Growth inhibition of mouse L5178Y cells. In kind it is functional. Conditions: read-out: ID50 (the source's name).
For the compound `[N-]=[N+]=N[C@H]1[C@H](O)[C@H](n2ccc(N)nc2=O)O[C@@H]1CO`, the IC50 was 0.5 µg/mL (≈ 1.86 µM).
As to `Nc1ccn([C@@H]2O[C@H](CO)[C@@H](Br)[C@@H]2O)c(=O)n1`, the IC50 worked out at 10 µg/mL (≈ 32.7 µM).
As to `Nc1ccn([C@@H]2O[C@H](CO)[C@@H](I)[C@@H]2O)c(=O)n1`, the IC50 was 1 µg/mL (≈ 2.83 µM).
